Reference: publication PMC10708960 (Computational and Structural Biotechnology Journal, 2023)
pIC50: −log10 of the molar value.

What was measured:
c-Met = conditions: no reference given; cited from earlier work
c-Src = c-Src (Gallus gallus, UniProt P00523); assay: biochemical; parameters: species or system Chicken
[1] = test system: c-Met mutations of D1228 and Y1230; conditions: cited from earlier work; for affinity against mutations of D1228 and Y1230: type I inhibitors, Fig. S10
[2] = test system: c-Met mutations of L1195 and F1200; conditions: type I inhibitors; Fig. S10; cited from earlier work
c-Met F1200I mutant = conditions: Fig. S10; cited from earlier work

Compound | affinity against mutations of D1228 and Y1230 [1] | activity against mutations of L1195 and F1200 [2] | also measured
C[C@H]1CNC(=O)c2cnn3ccc(nc23)N[C@H](C)c2cc(F)ccc2O1 [TPX-0005] | – | – | affinity for c-Met (c-Met): low affinity
CCN1Cc2c(ccc(F)c2C#N)O[C@@H](C)CNC(=O)c2c(N)nn3ccc1nc23 [TPX-0022] | – | – | pIC50 (c-Src): 8.43
COc1cc2nccc(Oc3ccc(NC(=O)C4(C(=O)Nc5ccc(F)cc5)CC4)cc3)c2cc1OC [cabozantinib] | – | – | ability to overcome mutations of D1228 and Y1230 ([1]; type II inhibitor): could overcome
CNC(=O)c1ccc(-c2cnc3ncc(Cc4ccc5ncccc5c4)n3n2)cc1F [capmatinib] | low affinity | potent activity | –
C[C@@H](Oc1cc(-c2cnn(C3CCNCC3)c2)cnc1N)c1c(Cl)ccc(F)c1Cl [crizotinib] | – | – | potency for the F1200I mutant (c-Met F1200I mutant): 50 to 200 nM
C[C@@H](c1ccc2nccn2c1)n1nnc2ncc(-c3cnn(C)c3)nc21 [savolitinib] | low affinity | potent activity | –
CN1CCC(COc2cnc(-c3cccc(Cn4nc(-c5cccc(C#N)c5)ccc4=O)c3)nc2)CC1 [tepotinib] | low affinity | potent activity | –
